Source: patent US10709678B2, “Methods of reducing risk of cardiovascular disease” (NEUROBO PHARMACEUTICALS, INC., priority 2012, dated 2020)
Like-named read-outs stand apart in the source and are kept apart here.

Legend:
LDL-C [1] = conditions: monotherapy, ezetimibe 10 mg; cited from earlier work
LDL-C [2] = conditions: lovastatin 40 mg twice daily; cited from earlier work
obese female Zucker rats = conditions: cited from earlier work
[3] = system: hypercholesterolemic patients; test: 8-week double-blind placebo-controlled phase 2 study of gemcabene added to a stable statin dose: LDL-C; type: in vivo, human; conditions: on stable statin, placebo reduction 7.9%, p<0.01
Procedure: An 8-week, double-blind, placebo-controlled, randomized, multicenter, phase 2 study in hypercholesterolemic patients on a stable dose of statin (on statin therapy for at least the previous 3 months) was conducted to evaluate the efficacy of gemcabene in the further reduction of LDL-C in these patients.
A total of 66 hypercholesterolemic patients were treated in this study: 22 randomized to gemcabene 900 mg, 20 randomized to gemcabene 300 mg, and 24 randomized to placebo.
Patients included in the study were men and women ≥18 and ≤65 years of age with hypercholesterolemia and an LDL-C level at screening of ≥130 mg/dL while on a stable (3-months) dose of a statin. Patients were required to maintain their current dose of statin throughout the course of the study. […]
Percent change from base line was calculated as follows: Percent Change From Baseline=[(final value−baseline value)/baseline value]×100%. […]

[4] = system: hypercholesterolemic patients; test: Framingham Risk Score, baseline vs week 8, in the same phase 2 study; type: in vivo, human; conditions: 300 mg and 900 mg QD
Procedure: As used herein, references to 10-year risk are calculated using the Framingham point scores as provided in Tables 1 and 2, for men and women respectively. The patients' Framingham Risk Score was calculated at baseline. The Framingham risk score calculation takes into account: age, gender, systolic blood pressure level (+/−treatment), HDL cholesterol level, and smoker status. […] Significance was determined using the SAS Proc Univariate which provides p values from the student's paired t-test and the Wilcoxon Signed Rank test.

LDL-C [5] = conditions: cited from earlier work

Structure (SMILES): O=C1[C@H](CC[C@H](O)c2ccc(F)cc2)[C@@H](c2ccc(O)cc2)N1c1ccc(F)cc1 [ezetimibe]
- LDL-C lowered (LDL-C [1]): 16%

Structure (SMILES): CC[C@H](C)C(=O)O[C@H]1C[C@@H](C)C=C2C=C[C@H](C)[C@H](CC[C@@H]3C[C@@H](O)CC(=O)O3)[C@H]21 [lovastatin]
- LDL-C lowered (LDL-C [2]): 35.5%

Structure (SMILES): CC(C)(CCCCCC(O)CCCCCC(C)(C)C(=O)O)C(=O)O [ESP 55016]
- HDL-C (obese female Zucker rats): raising
- non-HDL-C (obese female Zucker rats): effective in lowering
- triglyceride levels (obese female Zucker rats): decreasing

Structure (SMILES): CC(C)(CCCCOCCCCC(C)(C)C(=O)O)C(=O)O [gemcabene, 6,6′-oxybis-(2,2′-dimethylhexanoic acid)]
- LDL-C lowered from baseline at Week 8, median ([3]; 300 mg per day): 24.8%
- LDL-C lowered from baseline at Week 8, median ([3]; 900 mg per day): 31.0%
- Framingham Risk Score compared with statin treatment alone [4]: significantly reduced
- decrease in LDL-C beyond atorvastatin monotherapy (LDL-C [5]; 300 mg gemcabene with atorvastatin (aggregated over 10, 40 and 80 mg)): 3.8%
- decrease in LDL-C beyond atorvastatin monotherapy (LDL-C [5]; 600 mg gemcabene with atorvastatin (aggregated over 10, 40 and 80 mg)): 6.1%
- decrease in LDL-C beyond atorvastatin monotherapy (LDL-C [5]; 900 mg gemcabene with atorvastatin (aggregated over 10, 40 and 80 mg)): 7.4%
